System: treatment-naïve DME eyes
Format: in vivo, human
Protocol: A study was conducted to evaluate suprachoroidal CLS-TA in combination with intravitreal aflibercept, compared to aflibercept monotherapy for DME. SCS injections target chorioretinal tissues more directly than intravitreal injections while limiting exposure to the anterior chamber, thereby offering potential safety, efficacy, and durability advantages. The study was a Phase 2, multicenter, randomized, double-masked, controlled, 24-week study in treatment-naïve DME eyes (eligibility: CST >300 μm; 20-70 ETDRS letters) randomized 1:1 to CLS-TA+aflibercept or aflibercept monotherapy. Patients in the combination arm (n=36) received CLS-TA and aflibercept at baseline & week 12 ([…]). Patients in the monotherapy arm (n=35) received aflibercept at baseline, W4, W8 and […]. […] The study is referred to as the TYBEE study in some embodiments herein.

In the case of aflibercept, the “eyes with macular edema resolved (<300 μm)” value (W4) is reported as 21%, the “mean CST change” value (W24) is reported as −176 μm and the “gain in BCVA letters from baseline” value (W24, per protocol arms) is reported as “+13.5 letters”. The “mean PRN aflibercept treatments” value (at W16 & W20) was 0.7, the cataract observed (in vivo) was 2.9% and the “elevated IOP observed” value (in vivo) was 2.9%. For the same substance, the “treatment-related serious AEs” value (in vivo) was “No treatment-related serious AEs were observed” and the “average number of treatments” value (through week 24) was 4.7.
